# From patent US8207172B2 (Bayer Intellectual Property GmbH, priority 2004, dated 2012)
# Where a name gives a salt, the structure may show the parent alone.
# How the values were obtained:
# [1] = system: A431 cells (human epidermoid carcinoma); experiment: In vitro tumor cell proliferation assay (Cell Titer-Glo luminescent cell viability), A431; type: cell-based; conditions: A-431, 72 h, 72 hours of drug exposure, ATP luminescence readout, read-out: IC50, anti-proliferative activity (inhibition of cell proliferation)
# How it was run: (§1)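 IC50 values reflect ATP-based luminescence (CellTiter-Glo) after 72 h compound exposure at 37°C. Both lines, A431 and BT474, were plated in RPMI with 10% FBS and received serial dilutions ranging from 100 μM to 64 pM final at 0.1% DMSO.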
# [2] = system: BT474 (human breast carcinoma); experiment: In vitro tumor cell proliferation assay (Cell Titer-Glo luminescent cell viability), BT474; type: cell-based; conditions: BT-474, 72 h, BT474 cells, 72 hours of drug exposure, ATP luminescence readout, read-out: IC50, anti-proliferative activity (inhibition of cell proliferation)
# How it was run: as §1
IC50 [1] [µM],IC50 [2] [µM],Structure (SMILES)
≤ 5,≤ 1,"CN1CCN(CCn2ncc3c2CCc2c-3sc3ncnc(Nc4ccc(OCc5ccc(F)cc5)c(Cl)c4)c23)CC1 [Example 322, N-{3-chloro-4-[(4-fluorobenzyl)oxy]phenyl}-3-[2-(4-methylpiperazin-1-yl)ethyl]-4,5-dihydro-3H-pyrimido[5′,4′:4,5]thieno[2,3-e]indazol-6-amine trifluoroacelate]"
≤ 5,≤ 1,"Cc1cc(Nc2ncnc3sc4c(c23)CCc2c-4cnn2CCN2CCN(C)CC2)ccc1OCc1cccc(F)c1 [Example 323, N-{4-[(3-fluorobenzyl)oxy]-3-methylphenyl}-3-[2-(4-methylpiperazin-1-yl)ethyl]-4,5-dihydro-3H-pyrimido[5′,4′:4,5]thieno[2,3-e]indazol-6-amine]"
≤ 5,≤ 5,"COc1cccc(COc2ccc(Nc3ncnc4sc5c(c34)CCc3nn(CCN4CCN(C)CC4)cc3-5)cc2Cl)c1 [Example 324, N-{3-chloro-4-[(3-methoxybenzyl)oxy]phenyl}-2-[2-(4-methylpiperazin-1-yl)ethyl]-4,5-dihydro-2H-pyrimido[5′,4′:4,5]thieno[2,3-e]indazol-6-amine]"
≤ 5,≤ 5,"CN1CCN(CCn2cc3c(n2)CCc2c-3sc3ncnc(Nc4ccc(OCc5ccc(F)cc5)c(Cl)c4)c23)CC1 [Example 326, N-{3-chloro-4-[(4-fluorobenzyl)oxy]phenyl}-2-[2-(4-methylpiperazin-1-yl)ethyl]-4,5-dihydro-2H-pyrimido[5′,4′:4,5]thieno[2,3-e]indazol-6-amine]"
≤ 5,≤ 5,"CN1CCN(CCn2cc3c(n2)CCc2c-3sc3ncnc(Nc4ccc5nn(Cc6cccc(F)c6)cc5c4)c23)CC1 [Example 327, N-[2-(3-fluorobenzyl)-2H-indazol-5-yl]-2-[2-(4-methylpiperazin-1-yl)ethyl]-4,5-dihydro-2H-pyrimido[5′,4′:4,5]thieno[2,3-e]indazol-6-amine]"
≤ 5,≤ 5,"CN1CCN(CCn2cc3c(n2)CCc2c-3sc3ncnc(Nc4ccc(OCc5cccc(C(F)(F)F)c5)c(Cl)c4)c23)CC1 [Example 328, N-(3-chloro-4-{[3-(trifluoromethyl)benzyl]oxy}phenyl)-2-[2-(4-methylpiperazin-1-yl)ethyl]-4,5-dihydro-2H-pyrimido[5′,4′:4,5]thieno[2,3-e]indazol-6-amine]"
≤ 5,≤ 5,"Cc1ccc(Nc2ncnc3sc4c(c23)CCc2nn(CCN3CCN(C)CC3)cc2-4)cc1O [Example 329, 2-methyl-5-({2-[2-(4-methylpiperazin-1-yl)ethyl]-4,5-dihydro-2H-pyrimido[5′,4′:4,5]thieno[2,3-e]indazol-6-yl}amino)phenol]"
≤ 5,≤ 5,"Cc1cccc(COc2ccc(Nc3ncnc4sc5c(c34)CCc3nn(CCN4CCN(C)CC4)cc3-5)cc2Cl)c1 [Example 330, N-{3-chloro-4-[(3-methylbenzyl)oxy]phenyl}-2-[2-(4 methylpiperazin-1-yl)ethyl]-4,5-dihydro-2H-pyrimido[5′,4′:4,5]thieno[2,3-e]indazol-6-amine]"
≤ 5,≤ 1,"CN1CCN(CCn2cc3c(n2)CCc2c-3sc3ncnc(Nc4ccc(OCc5ccc(Cl)cc5)c(Cl)c4)c23)CC1 [Example 331, N-{3-chloro-4-[(4-chlorobenzyl)oxy]phenyl}-2-[2-(4-methylpiperazin-1-yl)ethyl]-4,5-dihydro-2H-pyrimido[5′,4′:4,5]thieno[2,3-e]indazol-6-amine]"
≤ 5,≤ 1,"CN1CCN(CCn2cc3c(n2)CCc2c-3sc3ncnc(Nc4ccc(OCc5ccccc5Cl)c(Cl)c4)c23)CC1 [Example 332, N-{3-chloro-4-[(2-chlorobenzyl)oxy]phenyl}-2-[2-(4-methylpiperazin-1-yl)ethyl]-4,5-dihydro-2H-pyrimido[5′,4′:4,5]thieno[2,3-e]indazol-6-amine]"
≤ 5,≤ 1,"CN1CCN(CCn2cc3c(n2)CCc2c-3sc3ncnc(Nc4ccc(OCc5cccc(Cl)c5)c(Cl)c4)c23)CC1 [Example 333, N-{3-chloro-4-[(3-chlorobenzyl)oxy]phenyl}-2-[2-(4-methylpiperazin-1-yl)ethyl]-4,5-dihydro-2H-pyrimido[5′,4′:4,5]thieno[2,3-e]indazol-6-amine]"
≤ 5,≤ 1,"CN1CCN(CCn2cc3c(n2)CCc2c-3sc3ncnc(Nc4ccc(OCc5ccccc5F)c(Cl)c4)c23)CC1 [Example 334, N-{3-chloro-4-[(2-fluorobenzyl)oxy]phenyl}-2-[2-(4-methylpiperazin-1-yl)ethyl]-4,5-dihydro-2H-pyrimido[5′,4′:4,5]thieno[2,3-e]indazol-6-amine]"
≤ 5,≤ 1,"Cc1cc(Nc2ncnc3sc4c(c23)CCc2nn(CCN3CCN(C)CC3)cc2-4)ccc1OCc1cccc(F)c1 [Example 335, N-{4-[(3-fluorobenzyl)oxy]-3-methylphenyl}-2-[2-(4-methylpiperazin-1-yl)ethyl]-4,5-dihydro-2H-pyrimido[5′,4′:4,5]thieno[2,3-e]indazol-6-amine]"
≤ 5,≤ 1,"CN1CCN(CCn2cc3c(n2)CCc2c-3sc3ncnc(Nc4ccc(OCc5cccc(C#N)c5)c(Cl)c4)c23)CC1 [Example 336, 3-{[2-chloro-4-({2-{2-(4-methylpiperazin-1-yl)ethyl]-4,5-dihydro-2H-pyrimido[5′,4′:4,5]thieno[2,3-e]indazol-6-yl}amino)phenoxy]methyl} benzonitrile]"
≤ 50,≤ 1,"CN1CCN(CCn2cc3c(n2)CCc2c-3sc3ncnc(Nc4ccc5c(cnn5Cc5ccccn5)c4)c23)CC1 [Example 338, 2-[2-(4-methylpiperazin-1-yl)ethyl]-N-[1-(pyridin-2-ylmethyl)-1H-indazol-5-yl]-4,5-dihydro-2H-pyrimido[5′,4′:4,5]thieno[2,3-e]indazol-6-amine]"
≤ 50,≤ 5,"CN1CCN(CCn2cc3c(n2)CCc2c-3sc3ncnc(Nc4ccc(Oc5cccnc5)cc4)c23)CC1 [Example 340, 2-[2-(4-methylpiperazin-1-yl)ethyl]-N-[4-(pyridin-3-yloxy)phenyl]-4,5-dihydro-2H-pyrimido[5′,4′:4,5]thieno[2,3-e]indazol-6-amine]"
≤ 50,≤ 5,"Cc1cc(Oc2ccc(Nc3ncnc4sc5c(c34)CCc3nn(CCN4CCN(C)CC4)cc3-5)c(F)c2)ccn1 [Example 341, N-{2-fluoro-4-[(2-methylpyridin-4-yl)oxy]phenyl}-2-[2-(4-methylpiperazin-1-yl)ethyl]-4,5-dihydro-2H-pyrimido[5′,4′:4,5]thieno[2,3-e]indazol-6-amine]"
≤ 50,≤ 5,"CN1CCN(CCn2cc3c(n2)CCc2c-3sc3ncnc(Nc4ccc(SCc5ccncc5)cc4)c23)CC1 [Example 342, 2-[2-(4-methylpiperazin-1-yl)ethyl]-N-{4-[(pyridin-4-ylmethyl)thio]phenyl}-4,5-dihydro-2H-pyrimido[5′,4′:4,5]thieno[2,3-e]indazol-6-amine]"
≤ 50,≤ 5,"CN1CCN(CCn2cc3c(n2)CCc2c-3sc3ncnc(Nc4ccc(Oc5cccnc5)c(F)c4)c23)CC1 [Example 343, N-[3-fluoro-4-(pyridin-3-yloxy)phenyl]-2-[2-(4-methylpiperazin-1-yl)ethyl]-4,5-dihydro-2H-pyrimido[5′,4′:4,5]thieno[2,3-e]indazol-6-amine]"
≤ 5,≤ 5,"CN1CCN(CCn2cc3c(n2)CCc2c-3sc3ncnc(Nc4cc(Cl)c(Cl)cc4F)c23)CC1 [Example 344, N-(4,5-dichloro-2-fluorophenyl)-2-[2-(4-methylpiperazin-1-yl)ethyl]-4,5-dihydro-2H-pyrimido[5′,4′:4,5]thieno[2,3-e]indazol-6-amine trifluoroacetate]"
